# According to patent publication US8586603B2, “Aminotetraline derivatives” (priority 2009, dated 2013):
# Key:
# [1] = target: T1, human dopamine receptor subtype hD4.4 (Homo sapiens, UniProt P21917); assay: Receptor binding assay, [3H]spiperone competition, CHO cell membranes
# T1 construct: expressed in transfected cells; host or cells: CHO
# T1 sequence (P21917 1-419): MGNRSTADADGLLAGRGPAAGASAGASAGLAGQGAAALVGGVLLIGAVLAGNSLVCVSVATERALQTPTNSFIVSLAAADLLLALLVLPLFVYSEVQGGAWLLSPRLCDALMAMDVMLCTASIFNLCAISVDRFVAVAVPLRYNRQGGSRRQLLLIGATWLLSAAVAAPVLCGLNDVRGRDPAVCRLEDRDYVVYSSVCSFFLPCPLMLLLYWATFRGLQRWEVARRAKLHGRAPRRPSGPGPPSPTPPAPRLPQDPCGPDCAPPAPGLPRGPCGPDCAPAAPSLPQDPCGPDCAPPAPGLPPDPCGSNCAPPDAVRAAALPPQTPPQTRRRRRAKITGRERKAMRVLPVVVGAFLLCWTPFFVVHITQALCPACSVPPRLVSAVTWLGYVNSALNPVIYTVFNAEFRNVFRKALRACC
# Protocol: Receptor binding data were determined when performing competition binding assays with membrane preparations of cloned cells (stably transfected Chinese Hamster Ovary cells (CHO)) expressing the human receptors and the following radioligands: [^3H]spiperone at the human dopamine receptor subtypes hD2long, hD2short, D3, and hD4.4. […].
# (§1) Selectivity ratios were calculated by division of the Ki values of the various compounds at the respective receptors through the Ki values at the 5HT1a receptor.
# [2] = target: T2, porcine striatal pD1 dopamine receptor (Sus scrofa, UniProt P50130); assay: Receptor binding assay, [3H]SCH 23390 competition, porcine striatal membranes
# T2 construct: membrane homogenates prepared from porcine striatal or cortical tissue; from tissue; host or cells: porcine striatum
# T2 sequence (P50130 whole entry): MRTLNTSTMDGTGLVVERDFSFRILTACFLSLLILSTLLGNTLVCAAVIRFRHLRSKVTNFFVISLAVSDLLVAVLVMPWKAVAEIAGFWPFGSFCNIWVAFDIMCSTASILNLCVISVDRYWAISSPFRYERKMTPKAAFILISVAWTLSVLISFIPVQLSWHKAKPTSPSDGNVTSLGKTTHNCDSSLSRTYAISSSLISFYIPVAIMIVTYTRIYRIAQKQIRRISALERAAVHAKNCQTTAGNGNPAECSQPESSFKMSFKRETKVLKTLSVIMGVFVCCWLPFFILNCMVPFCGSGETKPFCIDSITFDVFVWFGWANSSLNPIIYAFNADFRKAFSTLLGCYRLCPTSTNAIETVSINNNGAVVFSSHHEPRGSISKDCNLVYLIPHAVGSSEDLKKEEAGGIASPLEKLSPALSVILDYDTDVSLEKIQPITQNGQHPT
# [3] = target: T3, porcine cortical p5-HT2 serotonin receptor (Sus scrofa, UniProt P50129); assay: Receptor binding assay, [3H]ketanserin competition, porcine cortical membranes
# T3 construct: membrane homogenates prepared from porcine striatal or cortical tissue; from tissue; host or cells: porcine cortex
# T3 sequence (P50129 whole entry): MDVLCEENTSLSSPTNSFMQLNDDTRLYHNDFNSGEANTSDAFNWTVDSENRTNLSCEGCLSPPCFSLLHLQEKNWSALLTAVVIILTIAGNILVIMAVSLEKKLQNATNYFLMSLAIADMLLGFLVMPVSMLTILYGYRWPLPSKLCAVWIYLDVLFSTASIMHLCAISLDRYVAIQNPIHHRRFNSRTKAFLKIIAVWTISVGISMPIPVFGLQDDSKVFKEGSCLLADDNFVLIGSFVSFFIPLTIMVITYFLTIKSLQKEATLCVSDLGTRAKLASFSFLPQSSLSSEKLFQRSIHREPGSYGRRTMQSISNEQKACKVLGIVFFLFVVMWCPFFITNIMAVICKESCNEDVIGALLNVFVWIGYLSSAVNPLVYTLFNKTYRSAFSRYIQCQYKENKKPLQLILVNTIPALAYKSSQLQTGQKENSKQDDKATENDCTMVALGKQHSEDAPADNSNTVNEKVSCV
# [4] = test system: porcine cortical pα1 adrenergic receptor; assay: Receptor binding assay, [3H]prazosin competition, porcine cortical membranes; details: vs p5-HT1a
# [5] = target: T4, porcine cortical pα1 adrenergic receptor; assay: as above; details: means of 2-8 individual experiments each done as triplicate
# T4 construct: Ki pα1; other: means of 2-8 individual experiments each done as triplicate
# [6] = target: T5, porcine cortical p5-HT1a serotonin receptor (Sus scrofa, UniProt A0A4X1UTF5); assay: Receptor binding assay, [3H]WAY100635 competition, porcine cortical membranes
# T5 construct: membrane homogenates prepared from porcine striatal or cortical tissue; from tissue; host or cells: porcine cortex
# T5 sequence (A0A4X1UTF5 1-422): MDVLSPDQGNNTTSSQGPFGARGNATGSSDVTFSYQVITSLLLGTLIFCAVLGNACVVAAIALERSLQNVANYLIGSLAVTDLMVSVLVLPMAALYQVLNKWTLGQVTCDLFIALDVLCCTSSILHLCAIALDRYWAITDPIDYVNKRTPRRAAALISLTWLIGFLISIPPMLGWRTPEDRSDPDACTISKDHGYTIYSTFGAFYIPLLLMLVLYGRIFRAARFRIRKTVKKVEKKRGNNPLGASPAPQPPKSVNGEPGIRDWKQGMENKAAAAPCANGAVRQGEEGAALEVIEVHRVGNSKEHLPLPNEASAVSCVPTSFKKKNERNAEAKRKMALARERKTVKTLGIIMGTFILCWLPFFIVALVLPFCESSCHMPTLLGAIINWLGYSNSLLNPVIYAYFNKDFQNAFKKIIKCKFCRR
# [7] = Saturated solution in phosphate buffer pH 6.2; type: physicochemical
# Protocol: For the permeation experiments horizontal cells with an acceptor and donor volume of approx. 23 mL of phosphate buffer pH 6.2 were used. The donor cells contained saturated solutions of compound 1 (2 mg/mL) in phosphate buffer pH 6.2. The experiments were performed at a temperature of 32° C. and the acceptor and donor media were slowly stirred. For the study pig leg skin with thickness of 300-500 μm were used. The experiments were performed in triplicate (n=3) over a period of 48 hours. During this time period six samples at different time points (after 2, 4, 6, 8, 24 and 48 hours) were taken. After each individual incubation period the concentration of the test compound in the acceptor medium was analysed by HPLC at 275 nm, 20° C., flow rate 2.0 mL/min in acetonitrile/water/TFA.
# [8] = target: porcine cortical pα2 adrenergic receptor; assay: Receptor binding assay, [3H]RX821002 competition, porcine cortical membranes; details: means of 2-8 individual experiments each done as triplicate
# [9] = target: T6, human dopamine receptor subtype hD2long (Homo sapiens, UniProt P14416); assay: Receptor binding assay, [3H]spiperone competition, CHO cell membranes
# T6 construct: expressed in transfected cells; host or cells: CHO
# T6 sequence (P14416 whole entry): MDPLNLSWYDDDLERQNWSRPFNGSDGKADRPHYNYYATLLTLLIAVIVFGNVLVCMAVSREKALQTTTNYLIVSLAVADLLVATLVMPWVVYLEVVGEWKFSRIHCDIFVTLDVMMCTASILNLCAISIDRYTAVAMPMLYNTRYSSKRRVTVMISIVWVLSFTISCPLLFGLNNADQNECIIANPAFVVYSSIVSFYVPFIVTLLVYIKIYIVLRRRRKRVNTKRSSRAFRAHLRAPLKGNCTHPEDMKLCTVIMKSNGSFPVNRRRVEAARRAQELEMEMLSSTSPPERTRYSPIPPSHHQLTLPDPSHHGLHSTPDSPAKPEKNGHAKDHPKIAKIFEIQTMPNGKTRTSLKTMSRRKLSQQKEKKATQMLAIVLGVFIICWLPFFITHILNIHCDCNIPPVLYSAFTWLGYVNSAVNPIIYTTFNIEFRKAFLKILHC
# Protocol: (§2) Receptor binding data were determined when performing competition binding assays with membrane preparations of cloned cells (stably transfected Chinese Hamster Ovary cells (CHO)) expressing the human receptors and the following radioligands: [^3H]spiperone at the human dopamine receptor subtypes hD2long, hD2short, D3, and hD4.4.
# as §1
# [10] = target: T7, human dopamine receptor subtype hD3 (Homo sapiens, UniProt P35462); assay: as above
# T7 construct: expressed in transfected cells; host or cells: CHO
# T7 sequence (P35462 whole entry): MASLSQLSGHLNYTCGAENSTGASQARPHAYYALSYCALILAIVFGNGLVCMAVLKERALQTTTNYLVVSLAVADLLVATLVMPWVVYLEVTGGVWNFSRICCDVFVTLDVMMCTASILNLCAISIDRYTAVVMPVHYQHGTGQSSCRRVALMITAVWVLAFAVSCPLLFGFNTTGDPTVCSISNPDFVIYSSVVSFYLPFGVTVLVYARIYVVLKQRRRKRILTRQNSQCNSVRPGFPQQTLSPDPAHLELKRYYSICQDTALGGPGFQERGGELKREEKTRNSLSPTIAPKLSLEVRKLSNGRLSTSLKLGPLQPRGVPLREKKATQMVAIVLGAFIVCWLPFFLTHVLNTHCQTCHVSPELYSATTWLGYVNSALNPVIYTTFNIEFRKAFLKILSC
# Protocol: as §2, §1
# [11] = target: T8, human dopamine receptor subtype hD2short (Homo sapiens, UniProt P14416); assay: as above
# T8 construct: expressed in transfected cells; host or cells: CHO
# T8 sequence (P14416 1-414 isoform P14416-2): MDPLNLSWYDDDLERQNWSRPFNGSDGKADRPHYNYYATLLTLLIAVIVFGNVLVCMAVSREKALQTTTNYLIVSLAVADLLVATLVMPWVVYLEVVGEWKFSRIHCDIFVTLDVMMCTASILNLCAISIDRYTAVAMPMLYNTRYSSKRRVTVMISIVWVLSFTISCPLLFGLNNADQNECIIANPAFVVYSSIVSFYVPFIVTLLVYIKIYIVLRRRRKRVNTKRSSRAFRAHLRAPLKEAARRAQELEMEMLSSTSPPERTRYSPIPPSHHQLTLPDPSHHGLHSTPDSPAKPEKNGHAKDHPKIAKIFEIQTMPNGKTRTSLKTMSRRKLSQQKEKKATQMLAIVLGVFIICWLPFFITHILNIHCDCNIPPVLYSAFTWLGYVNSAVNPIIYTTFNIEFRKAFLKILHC
# Protocol: as §2, §1
# [12] = means of 2-8 individual experiments each done as triplicate
structure (smiles),measurement,setting,value
"CCCN(CCc1cccs1)C1CCc2cccc(O)c2C1 (stereo not shown) [Compound 1, N-(8-Hydroxytetralin-2-yl)-N-propyl-N-[2-(2-thienyl)ethyl]amine]",Ki,[1]; [12],190 nM
same,selectivity ratio hD4.4,[1]; vs p5-HT1a,260
same,Ki,[2]; [12],9400 nM
same,selectivity ratio pD1,[2]; vs p5-HT1a,13 000
same,Ki,[3]; [12],3600 nM
same,selectivity ratio p5-HT2,[3]; vs p5-HT1a,4 900
same,selectivity ratio pα1,[4],230
same,Ki,[5],170 nM
same,Ki,[6]; [12],0.73 nM
same,selectivity ratio p5-HT1a,[6]; reference receptor of the ratio (=1),1
same,melting point,,99 °C
same,concentration of saturated solution,[7],2000 µg/mL
same,Ki,[8],68 nM
same,Ki,[9]; [12],260 nM
same,selectivity ratio hD2long,[9]; vs p5-HT1a,360
same,Ki,[10]; [12],190 nM
same,selectivity ratio hD3,[10]; vs p5-HT1a,260
same,Ki,[11]; [12],260 nM
same,selectivity ratio hD2short,[11]; vs p5-HT1a,360
